Assay results taken from US8106048B2, “Heterocyclic NF-κB inhibitors” (4SC AG, priority 2004, dated 2012).

The molecules below were run on A549-NF-κB-SEAP reporter cells (assay: Inhibition of NF-κB-induced inflammation: […] NINA Instant Assay, TNF-α stimulated SEAP reporter). Details: % inhibition classes.
Assay type: cell-based
Summary of the method: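 A549 cells carrying an NF-κB-driven SEAP reporter were pretreated with compound (0.01–100 μM) for 4.5 h, then stimulated with 2 ng/ml TNF-α for 22 h. After inactivation of endogenous phosphatases, SEAP activity was read by CSPD chemiluminescence (40 min). EC50 values were fitted from quadruplicate data points.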

How did the “Biological activity (inhibition in the NF-κB inflammation assay)” value turn out when `COC(=O)C1Cc2ccc(O)cc2CN1C(=O)c1csc(C2CCN(C(=O)Cc3ccc(F)cc3)CC2)n1` (stereo not drawn) [compound 179] was run?
The value was “+ (“+” stands for 50-80% inhibition)”.

With `O=C(Cc1ccc(F)cc1)N1CCC(c2nc(C(=O)N3CCN(c4ccccc4)CC3)cs2)CC1` [compound 180] as the molecule, how does the “Biological activity (inhibition in the NF-κB inflammation assay)” value read?
The value was “+ (“+” stands for 50-80% inhibition)”.

For `O=C(Cc1ccc(F)cc1)N1CCC(c2nc(C(=O)N3CCC(n4nnc5cc(C(F)(F)F)ccc54)CC3)cs2)CC1` [compound 181], which “Biological activity (inhibition in the NF-κB inflammation assay)” value is on record?
The value was “+ (“+” stands for 50-80% inhibition)”.

How did the “Biological activity (inhibition in the NF-κB inflammation assay)” value turn out when `O=C(Cc1ccc(F)cc1)N1CCC(c2nc(C(=O)N3CCC(n4nnc5ccccc54)CC3)cs2)CC1` [compound 182] was run?
The value was “+ (“+” stands for 50-80% inhibition)”.

With `O=C(O)c1cccnc1C(=O)N1CCC(c2nc(C(=O)N3CCN(c4cccc(C(F)(F)F)c4)CC3)cs2)CC1` [compound 183] as the molecule, how does the “Biological activity (inhibition in the NF-κB inflammation assay)” value read?
The value was “+ (“+” stands for 50-80% inhibition)”.

For `O=C(O)c1ccc(C(=O)O)c(C(=O)N2CCC(c3nc(C(=O)N4CCN(c5cccc(C(F)(F)F)c5)CC4)cs3)CC2)c1` [compound 184], which “Biological activity (inhibition in the NF-κB inflammation assay)” value is on record?
Its value is “+ (“+” stands for 50-80% inhibition)”.

How did the “Biological activity (inhibition in the NF-κB inflammation assay)” value turn out when `O=C(O)c1ccccc1C(=O)N1CCC(c2nc(C(=O)N3CCN(c4cccc(C(F)(F)F)c4)CC3)cs2)CC1` [compound 185] was run?
The value was “+ (“+” stands for 50-80% inhibition)”.

Which “Biological activity (inhibition in the NF-κB inflammation assay)” value does the source give for `O=C(O)c1cccc(O)c1C(=O)N1CCC(c2nc(C(=O)N3CCN(c4cccc(C(F)(F)F)c4)CC3)cs2)CC1` [compound 186] here?
Its value is “+ (“+” stands for 50-80% inhibition)”.

With `O=C(O)c1cc(Cl)c(Cl)cc1C(=O)N1CCC(c2nc(C(=O)N3CCN(c4cccc(C(F)(F)F)c4)CC3)cs2)CC1` [compound 187] as the molecule, how does the “Biological activity (inhibition in the NF-κB inflammation assay)” value read?
Its value is “+ (“+” stands for 50-80% inhibition)”.

`O=C(O)C1=C(C(=O)N2CCC(c3nc(C(=O)N4CCN(c5cccc(C(F)(F)F)c5)CC4)cs3)CC2)CCC1` [compound 188] was tested. Which “Biological activity (inhibition in the NF-κB inflammation assay)” value did it give?
The value was “+ (“+” stands for 50-80% inhibition)”.

With `O=C(O)C1CCCCC1C(=O)N1CCC(c2nc(C(=O)N3CCN(c4cccc(C(F)(F)F)c4)CC3)cs2)CC1` (stereo not drawn) [compound 189] as the molecule, how does the “Biological activity (inhibition in the NF-κB inflammation assay)” value read?
The value was “+ (“+” stands for 50-80% inhibition)”.

With `O=C(O)C1=C(C(=O)N2CCC(c3nc(C(=O)N4CCN(c5cccc(C(F)(F)F)c5)CC4)cs3)CC2)CCCC1` [compound 190] as the molecule, how does the “Biological activity (inhibition in the NF-κB inflammation assay)” value read?
The value was “+ (“+” stands for 50-80% inhibition)”.

Which “Biological activity (inhibition in the NF-κB inflammation assay)” value does the source give for `O=C(O)C=CC(=O)N1CCC(c2nc(C(=O)N3CCN(c4cccc(C(F)(F)F)c4)CC3)cs2)CC1` [compound 191] here?
The value was “+ (“+” stands for 50-80% inhibition)”.

With `Cc1noc(C)c1S(=O)(=O)N1CCC(c2nc(C(=O)N3CCN(c4cccc(C(F)(F)F)c4)CC3)cs2)CC1` [compound 192] as the molecule, how does the “Biological activity (inhibition in the NF-κB inflammation assay)” value read?
Its value is “+ (“+” stands for 50-80% inhibition)”.

With `O=C(c1csc(C2CCN(S(=O)(=O)c3c(F)c(F)c(F)c(F)c3F)CC2)n1)N1CCN(c2cccc(C(F)(F)F)c2)CC1` [compound 193] as the molecule, how does the “Biological activity (inhibition in the NF-κB inflammation assay)” value read?
The value was “+ (“+” stands for 50-80% inhibition)”.

For `O=C(c1csc(C2CCN(S(=O)(=O)c3cccs3)CC2)n1)N1CCN(c2cccc(C(F)(F)F)c2)CC1` [compound 194], which “Biological activity (inhibition in the NF-κB inflammation assay)” value is on record?
The value was “+ (“+” stands for 50-80% inhibition)”.

How did the “Biological activity (inhibition in the NF-κB inflammation assay)” value turn out when `O=C(c1csc(C2CCN(S(=O)(=O)c3ccc(F)cc3Cl)CC2)n1)N1CCN(c2cccc(C(F)(F)F)c2)CC1` [compound 195] was run?
Its value is “+ (“+” stands for 50-80% inhibition)”.

How did the “Biological activity (inhibition in the NF-κB inflammation assay)” value turn out when `O=C(c1csc(C2CCN(S(=O)(=O)c3ccccc3Br)CC2)n1)N1CCN(c2cccc(C(F)(F)F)c2)CC1` [compound 196] was run?
The value was “+ (“+” stands for 50-80% inhibition)”.
